According to patent publication US20230218604A1, “PPARy AGONIST FOR TREATMENT OF PROGRESSIVE [sequence] PALSY” (Coherus Biosciences, Inc., priority 2022, published 2023):
“And” between values parts separate entries of the source, which are not always exact repeats. Equal entries are not always repeated. “Also recorded” adds a separate entry of the source.

Assays:
adiponectin [1] = assay: 24-week randomized, double-blind, placebo-controlled study in type 2 diabetes: serum adiponectin levels; assay type: in vivo, human; details: for Mean Adiponectin, Week 24 / Mean Change in adiponectin from baseline (Week 0) to Week 24 / Mean Adiponectin, Week 0: (SD); for Mean Change in adiponectin from baseline (Week 0) to Week 24: LOCF; for Mean Adiponectin, Week 0: baseline, type 2 diabetes subjects
Procedure: A randomized, double-blind, placebo-controlled, 24-week study was conducted in which adiponectin levels were measured. […] 367 subjects with type 2 diabetes (TD2)—a disease in which patient adiponectin levels are reduced—were randomly assigned to receive either 0.5, 1, 2 or 3 milligrams (“mg”) of INT131 besylate, 45 mg of pioglitazone or placebo daily for 24 weeks. To measure adiponectin levels blood was drawn at Weeks 0, 2, 6, 12 and 24. At baseline (Week 0) mean adiponectin levels were 1.94 micrograms per milliliter (“µg/mL”). The mean adiponectin levels at baseline and Week 24, and the mean change in adiponectin levels from baseline (Week 0) to Week 24 are disclosed in Table 1, below. The standard deviation for samples tested in each group is listed in (parenthesis). Mean baseline adiponectin values were similar for the treatment groups.

HbA1c [2] = assay: 24-week randomized, double-blind, placebo-controlled study in type 2 diabetes: HbA1c levels; assay type: in vivo, human; details: 24 weeks
adiponectin [3] = assay: 14-day study of serum adiponectin levels in healthy subjects; assay type: in vivo, human
Procedure: A study was conducted to determine the effect of INT131 on serum adiponectin levels. Thirty healthy subjects were randomly selected to receive either placebo, 0.1 mg INT131, 1 mg INT131 or 4 mg INT131 daily for 14 days. To measure adiponectin levels blood was drawn at Days 1, 4, 8 and 14.

[4] = RRMS study: monthly contrast MRI, cumulative CE lesions and new/enlarged T2 lesions; assay type: in vivo, human; details: for Reduction of CE lesion burden vs. placebo: 6 months; for Cumulative CE lesions over 6 months: complete case analysis
Procedure: (§1) 227 treatment-naive adult subjects (mean age 31 [range 18-50]; 65% female) were randomized into one of three arms: oral CHS-131 at 3 mg (n=76); oral CHS-131 at 1 mg (n=76); placebo (n=75), at 21 sites in Russia. 97% completed Part 1. Inclusion criteria: Relapsing Remitting Multiple Sclerosis (RRMS) for ≤3 years, ≥1 gadolinium-positive lesion within 1-year of enrollment, and an EDSS ≤ 6 at screening. The patients underwent monthly MRI examinations with contrast to identify new inflammatory lesions. All MRIs were read blinded at the Buffalo Neuroimaging Center (Buffalo, NY). In addition to CE lesions the images were scored for cumulative new/enlarged T2 lesions, and serial cortical and whole brain volumetric analysis.

[5] = RRMS study: serial cortical and whole brain volumetric MRI analysis; assay type: in vivo, human; details: 3 mg daily, 6 months
Procedure: as §1

HbA1c [6] = details: DePaoli et al. Diabetes Care 2014; cited from earlier work
[7] = subjects taking INT131 vs those taking pioglitazone; DePaoli et al. 2014; cited from earlier work
[8] = in vivo; cited from earlier work

SMILES: O=S(=O)(Nc1cc(Cl)c(Oc2cnc3ccccc3c2)c(Cl)c1)c1ccc(Cl)cc1Cl [INT131]
- Mean Adiponectin, Week 24 (adiponectin [1]; 0.5 mg INT131 daily for 24 weeks): 2.28 (1.540) µg/mL
- Mean Change in adiponectin from baseline (Week 0) to Week 24 (adiponectin [1]; 0.5 mg INT131 daily): 0.56 µg/mL and 0.56 (0.906) µg/mL
- Mean Adiponectin, Week 0 (adiponectin [1]; 0.5 mg INT131 group): 1.73 (1.190) µg/mL
- Adiponectin levels, treatment comparison with pioglitazone 45 mg (adiponectin [1]; 0.5 mg, 1 mg and 3 mg doses of INT131, p≤0.0408): statistically significant
- Mean Adiponectin, Week 24 (adiponectin [1]; 1 mg INT131 daily for 24 weeks): 3.15 (2.533) µg/mL
- Mean Change in adiponectin from baseline (Week 0) to Week 24 (adiponectin [1]; 1 mg INT131 daily): 1.28 µg/mL and 1.28 (1.882) µg/mL
- Mean Adiponectin, Week 0 (adiponectin [1]; 1 mg INT131 group): 1.87 (1.217) µg/mL
- Adiponectin levels, treatment comparison with placebo (adiponectin [1]; 1 mg, 2 mg and 3 mg doses of INT131, p≤0.0109): statistically significant increase
- Mean Adiponectin, Week 24 (adiponectin [1]; 2 mg INT131 daily for 24 weeks): 5.14 (3.650) µg/mL
- Mean Change in adiponectin from baseline (Week 0) to Week 24 (adiponectin [1]; 2 mg INT131 daily): 3.27 µg/mL and 3.27 (3.002) µg/mL
- Mean Adiponectin, Week 0 (adiponectin [1]; 2 mg INT131 group): 1.87 (1.098) µg/mL
- Mean Adiponectin, Week 24 (adiponectin [1]; 3 mg INT131 daily for 24 weeks): 5.83 (4.826) µg/mL
- Mean Change in adiponectin from baseline (Week 0) to Week 24 (adiponectin [1]; 3 mg INT131 daily): 3.83 µg/mL and 3.83 (4.313) µg/mL
- Mean Adiponectin, Week 0 (adiponectin [1]; 3 mg INT131 group): 2.00 (1.215) µg/mL
- Reduction of HbA1c levels as compared to placebo (HbA1c [2]; 1, 2 and 3 mg doses of INT131 daily): statistically significant reduction
- Reduction of HbA1c levels compared with 45 mg of pioglitazone (HbA1c [2]; 2 and 3 mg doses of INT131 daily): at least as well as 45 mg of pioglitazone
- Change in serum adiponectin levels, Day 1 to Day 14 and over placebo (adiponectin [3]; 0.1 mg INT131 daily for 14 days): no significant change
- Change in serum adiponectin levels over placebo and from Day 1 to Day 14 (adiponectin [3]; 1 mg or 4 mg INT131 daily for 14 days): significant change
- Cumulative CE lesions over 6 months, LSMean ([4]; 1 mg oral): 5.15
- Reduction of CE lesion burden vs. placebo ([4]; 1 mg oral, p=ns): 21%
- Cumulative CE lesions over 6 months ([4]; 1 mg oral): 7.6
- Reduction of new/enlarged T2 lesions compared to placebo ([4]; 1 mg, p=ns): 14%
- Cumulative CE lesions over 6 months, LSMean ([4]; 3 mg daily oral): 3.10
- Reduction of CE lesion burden vs. placebo ([4]; 3 mg daily oral, p=0.003): 52%
- Cumulative CE lesions over 6 months ([4]; 3 mg daily oral): 4.2 lesions
- Reduction of new/enlarged T2 lesions compared to placebo ([4]; 3 mg, p=0.0767): 30%
- Less cortical volume loss compared to placebo [5]: 34.2%
- Less whole brain volume loss compared to placebo [5]: 50%
- Efficacy in reducing HbA1c levels versus 45 mg of pioglitazone (HbA1c [6]): equally efficacious
- Side effects versus pioglitazone [7]: less edema, weight gain, and hemodilution
- Crossing of the blood brain barrier [8]: more readily than other PPARγ agonists; also recorded: readily crosses the blood brain barrier

SMILES: CCc1ccc(CCOc2ccc(CC3SC(=O)NC3=O)cc2)nc1 (centres unmarked) [pioglitazone, reference compound]
- Mean Adiponectin, Week 24 (adiponectin [1]; 45 mg pioglitazone daily for 24 weeks): 5.28 (3.222) µg/mL
- Mean Change in adiponectin from baseline (Week 0) to Week 24 (adiponectin [1]; 45 mg pioglitazone daily): 2.96 µg/mL
- Mean Change in adiponectin from baseline (Week 0) to Week 24 (adiponectin [1]; 45 mg pioglitazone daily, listed as Pioglitazone): 2.96 (2.618) µg/mL
- Mean Adiponectin, Week 0 (adiponectin [1]; 45 mg pioglitazone group): 2.32 (2.185) µg/mL
